Experimental data reported in PubChem BioAssay AID330 (DTP/NCI, 2004).
Inconclusive results and toxic doses are left out. The calls were made as follows: active = survival T/C of 150% or more; inactive = T/C below 125% in these data.

Test system: P388 leukemia ip, CD2F1 mice, survival T/C
Experiment: NCI In Vivo Anticancer Drug Screen. Data for tumor model P388 Leukemia (intraperitoneal) in CD2F1 (CDF1) mice
Settings: endpoint: median survival time, higher = longer survival
Summary of the method: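 Mice carrying the transplanted tumor received test compound or vehicle. Survival was recorded in each group, and the value is the treated-group measurement divided by that of the vehicle-treated control group.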

[1] = dose: 60.0 mg/kg/injection, schedule: Q01DX005 (ip), vehicle: saline with Tween-80
[2] = dose: 120.0 mg/kg/injection, schedule: Q01DX005 (ip), vehicle: saline with Tween-80
[3] = dose: 240.0 mg/kg/injection, schedule: Q01DX005 (ip), vehicle: saline with Tween-80
[4] = dose: 25.0 mg/kg/injection, schedule: Q04DX003 (ip), vehicle: Klucel (hydroxypropylcellulose) (HPC)

Measured: T/C

N.N.N.N.N.N.[Cl-].[Pt]
inactive: dose: 12.5 mg/kg/injection, schedule: Q01DX009 (ip), vehicle: saline 92 % of control | dose: 25.0 mg/kg/injection, schedule: Q01DX009 (ip), vehicle: saline 97 % of control

COC(=O)C12CC(CCC1C13CCC4(OCCO4)C(C)(C)C1C(=O)OC3)C(C)C2O (stereo not drawn)
inactive: dose: 100.0 mg/kg/injection, schedule: Q04DX002 (ip), vehicle: saline with Tween-80 97 % of control | dose: 200.0 mg/kg/injection, schedule: Q04DX002 (ip), vehicle: saline with Tween-80 94 % of control | dose: 400.0 mg/kg/injection, schedule: Q04DX002 (ip), vehicle: saline with Tween-80 100 % of control

Cc1cc(N=Cc2c(CO)cnc(C)c2O)c(N=Cc2c(CO)cnc(C)c2O)cc1C
inactive: dose: 50.0 mg/kg/injection, schedule: Q01DX005 (ip), vehicle: Klucel (hydroxypropylcellulose) (HPC) 98 % of control | [1] 93 % of control | dose: 100.0 mg/kg/injection, schedule: Q01DX005 (ip), vehicle: Klucel (hydroxypropylcellulose) (HPC) 96 % of control | [2] 104 % of control | dose: 200.0 mg/kg/injection, schedule: Q01DX005 (ip), vehicle: Klucel (hydroxypropylcellulose) (HPC) 91 % of control | [3] 94 % of control

Cc1ccccc1N
inactive: dose: 50.0 mg/kg/injection, schedule: Q01DX009 (ip), vehicle: saline sonified 100 % of control | dose: 100.0 mg/kg/injection, schedule: Q01DX009 (ip), vehicle: saline sonified 100 % of control | dose: 200.0 mg/kg/injection, schedule: Q01DX009 (ip), vehicle: saline sonified 104 % of control

CCCNC(=O)NNC(=O)c1ccc(NC(=O)NCCC)cc1
inactive: dose: 50.0 mg/kg/injection, schedule: Q01DX009 (ip), vehicle: Klucel (hydroxypropylcellulose) (HPC) 101 % of control | dose: 100.0 mg/kg/injection, schedule: Q01DX009 (ip), vehicle: Klucel (hydroxypropylcellulose) (HPC) 102 % of control | dose: 200.0 mg/kg/injection, schedule: Q01DX009 (ip), vehicle: Klucel (hydroxypropylcellulose) (HPC) 89 % of control

CCCOc1cc2c(cc1C(C)c1ccc(OCC)c(C)c1)OCO2 (stereo not drawn)
inactive: dose: 30.0 mg/kg/injection, schedule: Q01DX005 (ip), vehicle: saline with Tween-80 100 % of control | [1] 103 % of control | [2] 106 % of control | [3] 116 % of control

NNc1nncc2c1[nH]c1ccccc12
inactive: dose: 1.56 mg/kg/injection, schedule: Q01DX001 (ip), vehicle: saline with Tween-80 102 % of control | dose: 3.12 mg/kg/injection, schedule: Q01DX001 (ip), vehicle: saline with Tween-80 102 % of control | dose: 6.25 mg/kg/injection, schedule: Q01DX001 (ip), vehicle: saline with Tween-80 105 % of control | dose: 12.5 mg/kg/injection, schedule: Q01DX001 (ip), vehicle: saline with Tween-80 103 % of control

COC(=O)n1oc2c(Br)cc(Br)cc2c1=O
inactive: dose: 100.0 mg/kg/injection, schedule: Q04DX002 (ip), vehicle: Klucel (hydroxypropylcellulose) (HPC) 93 % of control | dose: 200.0 mg/kg/injection, schedule: Q04DX002 (ip), vehicle: Klucel (hydroxypropylcellulose) (HPC) 101 % of control | dose: 400.0 mg/kg/injection, schedule: Q04DX002 (ip), vehicle: Klucel (hydroxypropylcellulose) (HPC) 101 % of control

c1cc[n+](-c2nc3ccccc3[n-]2)cc1
inactive: dose: 100.0 mg/kg/injection, schedule: Q04DX003 (ip), vehicle: saline 100 % of control | dose: 200.0 mg/kg/injection, schedule: Q04DX003 (ip), vehicle: saline 98 % of control | dose: 400.0 mg/kg/injection, schedule: Q04DX003 (ip), vehicle: saline 100 % of control

CC(=O)Nc1ccc(S(=O)(=O)c2ccc([N+](=O)[O-])s2)cc1
inactive: [4] 105 % of control | dose: 50.0 mg/kg/injection, schedule: Q04DX003 (ip), vehicle: Klucel (hydroxypropylcellulose) (HPC) 102 % of control

CC(C)=NNC(N)=S
inactive: dose: 12.5 mg/kg/injection, schedule: Q04DX003 (ip), vehicle: Klucel (hydroxypropylcellulose) (HPC) 93 % of control | [4] 100 % of control

CCOC(=O)[C@]12CCC[C@@]1(O)NC(=O)c1cnccc12
inactive: dose: 100.0 mg/kg/injection, schedule: Q04DX003 (ip), vehicle: saline with Tween-80 100 % of control | dose: 200.0 mg/kg/injection, schedule: Q04DX003 (ip), vehicle: saline with Tween-80 97 % of control | dose: 400.0 mg/kg/injection, schedule: Q04DX003 (ip), vehicle: saline with Tween-80 93 % of control
